Values after ≈ are worked out from the molar mass of the structure shown.
Columns and labels:
[1] = test system: H. influenzae; experiment: MIC by micro-dilution method, H. influenzae isolates; format: cell-based, Haemophilus influenzae
Procedure: (§1) Susceptibility tests can be used to quantitatively measure the in vitro activity of an antimicrobial agent against a given bacterial isolate. Compounds are tested for in vitro antibacterial activity by a micro-dilution method. Minimal Inhibitory Concentration (MIC) is determined in 96 well microtiter plates utilizing the appropriate broth medium for the observed bacterial isolates. […] The diluted compounds (2 μl/well) are then transferred into sterile, uninoculated medium (0.2 mL) by use of a 96 fixed tip-pipetting station. The inoculum for each bacterial strain is standardized to approximately 5×10^5 CFU/mL by optical comparison to a 0.5 McFarland turbidity standard. The plates are inoculated with 10 μl/well of adjusted bacterial inoculum. The 96 well plates are covered and incubated at 35+/−2° C. for 24 hours in ambient air environment. Following incubation, plate wells are visually examined by Optical Density measurement for the presence of growth (turbidity). The lowest concentration of an antimicrobial agent at which no visible growth occurs is defined as the MIC.
(§2) All in vitro testing follows the guidelines described in the Approved Standards M7-A7 protocol, published by the Clinical Laboratory Standards Institute (CLSI).

[2] = test system: MRSA; experiment: MIC by micro-dilution method, MRSA isolates; format: cell-based, Staphylococcus aureus; details: compounds of Formula XVI; for MIC MRSA 7662: MRSA isolate 7662; for MIC MRSA 33591: MRSA isolate 33591
Procedure: as §1, §2

SMILES	MIC ([1]; H. influenzae 33929) [µg/mL]	MIC ([1]; H. influenzae 49247) [µg/mL]	MIC MRSA 7662 [2] [µg/mL]	MIC MRSA 33591 [2] [µg/mL]
CCC1OC(=O)C(C)C(=O)C(C)C(OC2OC(C)CC(N(C)C)C2O)C2(C)CC(C)C(=O)C(C)C(OCC(=NOCc3ccc(-c4nc(N)cs4)cn3)CO2)C1(C)O (centres unmarked) [Example 32]	2 (≈ 2.4 µM)	2 (≈ 2.4 µM)	–	–
CCC1OC(=O)C(C)(F)C(=O)C(C)C(OC2OC(C)CC(N(C)C)C2O)C2(C)CC(C)C(=O)C(C)C(OCC(=NOCc3ccc(-c4nc(N)cs4)cn3)CO2)C1(C)O (centres unmarked) [Example 33]	4 (≈ 4.71 µM)	2 (≈ 2.35 µM)	–	–
CCC1OC(=O)C(C)C(=O)C(C)C(OC2OC(C)CC(N(C)C)C2O)C2(C)CC(C)C(=O)C(C)C(OCC(=NOCc3cnc(-c4cccc(N)n4)s3)CO2)C1(C)O (centres unmarked) [Example 34]	2 (≈ 2.4 µM)	2 (≈ 2.4 µM)	–	–
CCC1OC(=O)C(C)C(=O)C(C)C(OC2OC(C)CC(N(C)C)C2O)C2(C)CC(C)C(=O)C(C)C(OCC(=NOCc3ccc(-c4nsc(N)n4)cn3)CO2)C1(C)O (centres unmarked) [Example 35]	2 (≈ 2.4 µM)	2 (≈ 2.4 µM)	–	–
CCC1OC(=O)C(C)C(=O)C(C)C(OC2OC(C)CC(N(C)C)C2O)C2(C)CC(C)C(=O)C(C)C(OCC(=NOCc3ncc(-c4cccc(N)n4)s3)CO2)C1(C)O (centres unmarked) [Example 36]	2 (≈ 2.4 µM)	2 (≈ 2.4 µM)	–	–
CCC1OC(=O)C(C)C(=O)C(C)C(OC2OC(C)CC(N(C)C)C2O)C2(C)CC(C)C(=NC(C)=O)C(C)C(OCC(=NOCc3cnc(-c4cccc(N)n4)s3)CO2)C1(C)O (centres unmarked) [Example 37]	4 (≈ 4.58 µM)	2 (≈ 2.29 µM)	–	–
CCC1OC(=O)C(C)(F)C(=O)C(C)C(OC2OC(C)CC(N(C)C)C2O)C2(C)CC(C)C(=O)C(C)C(OCC(=NOCc3ccc(-c4nc(N)no4)cc3)CO2)C1(C)O (centres unmarked) [Example 38]	2 (≈ 2.4 µM)	4 (≈ 4.8 µM)	–	–
CCC1OC(=O)C(C)C(=O)C(C)C(OC2OC(C)CC(N(C)C)C2O)C2(C)CC(C)C(=O)C(C)C(OCC(=NOCc3coc(-c4cccc(N)n4)n3)CO2)C1(C)O (centres unmarked) [Example 39]	1 (≈ 1.23 µM)	1 (≈ 1.23 µM)	–	–
CCC1OC(=O)C(C)C(=O)C(C)C(OC2OC(C)CC(N(C)C)C2O)C2(C)CC(C)C(=NC(C)=O)C(C)C(OCC(=NOCc3coc(-c4cccc(N)n4)n3)CO2)C1(C)O (centres unmarked) [Example 40]	2 (≈ 2.33 µM)	2 (≈ 2.33 µM)	–	–
CCC1OC(=O)C(C)C(=O)C(C)C(OC2OC(C)CC(N(C)C)C2O)C2(C)CC(C)C(=O)C(C)C(OCC(=NOCc3ccc(-c4csc(N)n4)cn3)CO2)C1(C)O (centres unmarked) [Example 41]	2 (≈ 2.4 µM)	1 (≈ 1.2 µM)	–	–
CCC1OC(=O)C(C)C(=O)C(C)C(OC2OC(C)CC(N(C)C)C2O)C2(C)CC(C)C(=O)C(C)C(OCC(=NOCc3ccc(-c4nc(N)no4)cc3)CO2)C1(C)O (centres unmarked) [Example 42]	2 (≈ 2.45 µM)	1 (≈ 1.23 µM)	–	–
CCC1OC(=O)C(C)(F)C(=O)C(C)C(OC2OC(C)CC(N(C)C)C2O)C2(C)CC(C)C(=O)C(C)C(OCC(=NOCc3ccc(-c4nc(N)no4)cn3)CO2)C1(C)O (centres unmarked) [Example 43]	2 (≈ 2.4 µM)	2 (≈ 2.4 µM)	–	–
CCC1OC(=O)C(C)C(=O)C(C)C(OC2OC(C)CC(N(C)C)C2O)C2(C)CC(C)C(=O)C(C)C(OCC(=NOCc3ccc(-c4nc(N)ns4)cc3)CO2)C1(C)O (centres unmarked) [Example 44]	2 (≈ 2.4 µM)	1 (≈ 1.2 µM)	–	–
CCC1OC(=O)C(C)C(=O)C(C)C(OC2OC(C)CC(N(C)C)C2O)C2(C)CC(C)C(=O)C(C)C(OCC(=NOCc3ccc(-c4nc(N)no4)cn3)CO2)C1(C)O (centres unmarked) [Example 45]	2 (≈ 2.45 µM)	1 (≈ 1.22 µM)	–	–
CCC1OC(=O)C(C)C(=O)C(C)C(OC2OC(C)CC(N(C)C)C2O)C2(C)CC(C)C(=O)C(C)C(OCC(=NOCc3ccc(-n4nnnc4N)cc3)CO2)C1(C)O (centres unmarked) [Example 46]	2 (≈ 2.45 µM)	2 (≈ 2.45 µM)	–	–
CCC1OC(=O)C(C)C(=O)C(C)C(OC2OC(C)CC(N(C)C)C2O)C2(C)CC(C)C(=NC(C)=O)C(C)C(OCC(=NOCc3ccc(-n4nnnc4N)cc3)CO2)C1(C)O (centres unmarked) [Example 47]	2 (≈ 2.33 µM)	–	–	–

SMILES	MIC ([1]; H. influenzae 33929) [µg/mL]	MIC ([1]; H. influenzae 49247) [µg/mL]	MIC MRSA 7662 [2] [µg/mL]	MIC MRSA 33591 [2] [µg/mL]
CCC1OC(=O)C(C)C(=O)C(C)C(OC2OC(C)CC(N(C)C)C2O)C2(C)CC(C)C(=NC(C)=O)C(C)C(OCC(=NOCc3ccc(-c4nsc(N)n4)cc3)CO2)C1(C)O (centres unmarked) [Example 48]	2 (≈ 2.29 µM)	–	–	–
CCC1OC(=O)C(C)(F)C(=O)C(C)C(OC2OC(C)CC(N(C)C)C2O)C2(C)CC(C)C(=O)C(C)C(OCC(=NOCc3ccc(-n4ccc(N)n4)nc3)CO2)C1(C)O (centres unmarked) [Example 49]	2 (≈ 2.4 µM)	2 (≈ 2.4 µM)	–	–
CCC1OC(=O)C(C)C(=O)C(C)C(OC2OC(C)CC(N(C)C)C2O)C2(C)CC(C)C(=O)C(C)C(OCC(=NOCc3ncc(-c4cccc(N)n4)cn3)CO2)C1(C)O (centres unmarked) [Example 50]	2 (≈ 2.42 µM)	2 (≈ 2.42 µM)	–	–
CCC1OC(=O)C(C)C(=O)C(C)C(OC2OC(C)CC(N(C)C)C2O)C2(C)CC(C)C(=O)C(C)C(OCC(=NOCc3ccc(-c4nc(N)no4)nc3)CO2)C1(C)O (centres unmarked) [Example 51]	2 (≈ 2.45 µM)	2 (≈ 2.45 µM)	–	–
CCC1OC(=O)C(C)(F)C(=O)C(C)C(OC2OC(C)CC(N(C)C)C2O)C2(C)CC(C)C(=O)C(C)C(OCC(=NOCc3nc(-c4cccc(N)n4)no3)CO2)C1(C)O (centres unmarked) [Example 52]	1 (≈ 1.2 µM)	2 (≈ 2.4 µM)	–	–
CCC1OC(=O)C(C)C(=O)C(C)C(OC2OC(C)CC(N(C)C)C2O)C2(C)CC(C)C(=O)C(C)C(OCC(=NOCc3nc(-c4cccc(N)n4)no3)CO2)C1(C)O (centres unmarked) [Example 53]	1 (≈ 1.22 µM)	1 (≈ 1.22 µM)	–	–
CCC1OC(=O)C(C)C(=O)C(C)C(OC2OC(C)CC(N(C)C)C2O)C2(C)CC(C)C(=O)C(C)C(OCC(=NOCc3noc(-c4cccc(N)n4)n3)CO2)C1(C)O (centres unmarked) [Example 54]	1 (≈ 1.22 µM)	1 (≈ 1.22 µM)	–	–
CCC1OC(=O)C(C)C(=O)C(C)C(OC2OC(C)CC(N(C)C)C2O)C2(C)CC(C)C(=O)C(C)C(OCC(=NOCc3ccc(-c4coc(N)n4)cn3)CO2)C1(C)O (centres unmarked) [Example 55]	2 (≈ 2.45 µM)	1 (≈ 1.23 µM)	–	–
CCC1OC(=O)C(C)(F)C(=O)C(C)C(OC2OC(C)CC(N(C)C)C2O)C2(C)CC(C)C(=O)C(C)C(OCC(=NOCc3ccc(-c4nc(N)ns4)cc3)CO2)C1(C)O (centres unmarked) [Example 56]	2 (≈ 2.35 µM)	2 (≈ 2.35 µM)	–	–
CCC(=O)N=C1C(C)CC2(C)OCC(=NOCc3ccn(-c4cccc(N)n4)n3)COC(C1C)C(C)(O)C(CC)OC(=O)C(C)(F)C(=O)C(C)C2OC1OC(C)CC(N(C)C)C1O (centres unmarked) [Example 57]	4 (≈ 4.5 µM)	2 (≈ 2.25 µM)	–	–
CCC(=O)N=C1[C@H](C)C[C@@]2(C)OC/C(=N/OCc3ncc(-c4nc(N)cs4)cn3)CO[C@H]([C@H]1C)[C@](C)(O)[C@@H](CC)OC(=O)[C@@](C)(F)C(=O)[C@H](C)[C@H]2O[C@@H]1O[C@H](C)C[C@H](N(C)C)[C@H]1O [Example 132]	–	–	2.00 (≈ 2.21 µM)	4.00 (≈ 4.41 µM)
CCC(=O)N=C1[C@H](C)C[C@@]2(C)OC/C(=N/OCc3cnc(-c4nc(N)cs4)cn3)CO[C@H]([C@H]1C)[C@](C)(O)[C@@H](CC)OC(=O)[C@@](C)(F)C(=O)[C@H](C)[C@H]2O[C@@H]1O[C@H](C)C[C@H](N(C)C)[C@H]1O [Example 133]	–	–	2.00 (≈ 2.21 µM)	4.00 (≈ 4.41 µM)
CCC(=O)N=C1[C@H](C)C[C@@]2(C)OC/C(=N/OCc3ncc(-c4cccc(N)n4)o3)CO[C@H]([C@H]1C)[C@](C)(O)[C@@H](CC)OC(=O)[C@@](C)(F)C(=O)[C@H](C)[C@H]2O[C@@H]1O[C@H](C)C[C@H](N(C)C)[C@H]1O [Example 134]	–	–	4.00 (≈ 4.5 µM)	8.00 (≈ 9 µM)
[2H]C([2H])([2H])C([2H])([2H])C(=O)N=C1[C@H](C)C[C@@]2(C)OC/C(=N/OCc3ccc(-c4nc(N)cs4)cn3)CO[C@H]([C@H]1C)[C@](C)(O)[C@@H](CC)OC(=O)[C@@](C)(F)C(=O)[C@H](C)[C@H]2O[C@@H]1O[C@H](C)C[C@H](N(C)C)[C@H]1O [Example 135]	–	–	2.00 (≈ 2.2 µM)	2.00 (≈ 2.2 µM)
CC[C@H]1OC(=O)[C@@](C)(F)C(=O)[C@H](C)[C@@H](O[C@@H]2O[C@H](C)C[C@H](N(C)C)[C@H]2O)[C@@]2(C)C[C@@H](C)C(=NC(C)=O)[C@H](C)[C@@H](OC/C(=N\OCc3csc(-c4cccc(N)n4)n3)CO2)[C@]1(C)O [Example 136]	–	–	2.00 (≈ 2.24 µM)	2.00 (≈ 2.24 µM)
CC[C@H]1OC(=O)[C@@](C)(F)C(=O)[C@H](C)[C@@H](O[C@@H]2O[C@H](C)C[C@H](N(C)C)[C@H]2O)[C@@]2(C)C[C@@H](C)C(=NC(=O)C(C)C)[C@H](C)[C@@H](OC/C(=N\OCc3csc(-c4cccc(N)n4)n3)CO2)[C@]1(C)O [Example 137]	–	–	1.00 (≈ 1.09 µM)	2.00 (≈ 2.18 µM)

Reference: patent US20130165641A1, “6,11-BRIDGED BIARYL MACROLIDES” (Enanta Pharmaceuticals, Inc., priority 2007, published 2013)
